# Reference: ChEMBL document CHEMBL4715909, “Identification of Plasmodium falciparum heat shock 90 inhibitors via molecular docking” (Bioorg Med Chem Lett, 2021)
# How the values were obtained:
# Plasmodium falciparum [1] = assay: Antimalarial activity against Plasmodium falciparum 3D7 assessed as reduction in parasitic growth; type: functional, organism-based
# BJ [2] = assay: Cytotoxicity against human BJ cells assessed as reduction in cell viability; type: cell-based
# Plasmodium falciparum [3] = assay: Antimalarial activity against Plasmodium falciparum 3D7 assessed as reduction in parasitic growth at 16 uM relative to control; type: functional; set-up: scale not given: the % may be the effect or the level left
# BJ [4] = assay: Cytotoxicity against human BJ cells assessed as reduction in cell viability at 58 uM by relative to control; type: cell-based
Structure (SMILES),EC50 (Plasmodium falciparum [1]),EC50 (BJ [2]),Activity (Plasmodium falciparum [3]),Activity (BJ [4])
O=C(c1cccc(Nc2nc3ccccc3n3nnnc23)c1)N1CCc2ccccc2C1,3.44 µM,> 24 µM,–,–
O=C(Cc1ccc2c(c1)OCO2)N1CCC(c2nc(=O)c3nnn(Cc4ccccc4F)c3[nH]2)CC1,12.7 µM,> 24 µM,–,–
O=C(N[C@H]1CCc2ccccc21)C1CCN(c2ncccc2-c2nc(-c3ccccc3)no2)CC1,1.11 µM,> 24 µM,–,–
Cc1nnc(-c2nn(-c3ccc(C(=O)N4CCC[C@H](C)C4)cc3)c(-c3ccc(F)cc3)c2C)o1,5.5 µM,> 24 µM,–,–
Cc1c(C(=O)Nc2ccc3ccc(=O)oc3c2)nnn1-c1ccc2noc(-c3ccccc3)c2c1,15.7 µM,> 24 µM,–,–
O=C1CN(C(=O)CN2C[C@H](C(=O)N3CCCCC3)Oc3ccccc32)c2ccccc2N1,> 18 µM,> 24 µM,–,–
O=C(NCc1ccc2c(c1)OCO2)C1CCN(c2ncnc3onc(-c4cccc(F)c4)c23)CC1,0.98 µM,> 24 µM,–,–
O=C(c1ccc2noc(-c3ccccc3)c2c1)N1CCC[C@H](c2nnc3ccccn23)C1,> 18 µM,> 24 µM,–,–
Cc1cccc(-c2nc(C3CCN(C(=O)[C@H]4CC(=O)N(c5ccc(C)c(C)c5)C4)CC3)no2)c1,12.1 µM,> 24 µM,–,–
"O[C@@H](c1cc(C(F)(F)F)nc2c(C(F)(F)F)cccc12)[C@H]1CCCCN1 [(S,R)-MEFLOQUINE]",–,–,100%,–
O=C(c1cccc(S(=O)(=O)N2CCc3ccccc32)c1)N1CCC(c2nnc3ccccn23)CC1,> 18 µM,> 24 µM,–,–
O=C(CCn1c(=O)c2ccccc2n(Cc2ccccc2F)c1=O)N1CCc2ccccc2C1,> 18 µM,> 24 µM,–,–
c1ccc(-c2nnn3c2nc(N2CCN(Cc4ccc5c(c4)OCO5)CC2)c2ccccc23)cc1,17 µM,> 24 µM,–,–
CC(=O)[C@]1(O)Cc2c(O)c3c(c(O)c2[C@@H](O[C@H]2C[C@H](N)[C@H](O)[C@H](C)O2)C1)C(=O)c1ccccc1C3=O [IDARUBICIN],–,–,–,100%
